Here are results for 36 molecules from patent US9204653B2, “5-fluoro pyrimidine derivatives” (DOW AGROSCIENCES LLC, priority 2008, dated 2015).

Like-named read-outs stand apart in the source and are kept apart here.

For the assay, the system named is Mycosphaerella graminicola; Anamorph: Septoria tritici; Bayer Code SEPTTR. Put plainly: Leaf blotch of wheat, foliar fungicide treatment, one day protectant (1DP) or three day curative (3DC). Type of assay: in vivo, Septoria tritici on wheat plants (variety Yuma). The settings on record: Zymoseptoria tritici, percent disease control rating.
[1] abbreviates: 24 h, one day protectant (1DP), read-out: SETTTR 1DP 25 ppm.
The mark [2] stands for this setting: 24 h, one day protectant (1DP), read-out: SEPTTR 1DP 100 ppm.
The mark [3] stands for this setting: 72 h, three day curative (3DC), read-out: SEPTTR 3DC 25 ppm.
Setting [4] is: 72 h, three day curative (3DC), read-out: SEPTTR 3DC 100 ppm.

As for `CC(Oc1ncc(F)c(NSc2ccccc2[N+](=O)[O-])n1)c1ccc(F)cc1` (stereo not drawn) [Compound 126], the pest or weed control at 25 ppm under setting [1] was 76 to 100% and the pest or weed control at 25 ppm under setting [3] was 76 to 100%. The pest or weed control at 100 ppm under setting [2] is 76 to 100% and the pest or weed control at 100 ppm under setting [4] fell in the range of 76 to 100%.
Regarding `Nc1nc(OCCc2cccc(C(F)(F)F)c2)ncc1F` [Compound 129], the pest or weed control at 25 ppm by setting is: under setting [1], 26 to 50%; under setting [3], 76 to 100%. The pest or weed control at 100 ppm under setting [2] lay in the range of 76 to 100% and the pest or weed control at 100 ppm under setting [4] was in the range of 76 to 100%.
As to `CN(C)/C=N/c1nc(OC(=O)C(C)(C)C)ncc1F` [Compound 130], the pest or weed control at 25 ppm lay within 76 to 100% under setting [1] and 76 to 100% under setting [3]. Further, the pest or weed control at 100 ppm reads like this: under setting [2], 76 to 100%; under setting [4], 76 to 100%.
Regarding `CN(C)/C=N/c1nc(OS(C)(=O)=O)ncc1F` [Compound 131], the pest or weed control at 25 ppm runs as follows: under setting [1], 26 to 50%; under setting [3], 26 to 50%. Besides, the pest or weed control at 100 ppm by setting is: under setting [2], 51 to 75%; under setting [4], 76 to 100%.
Turning to `Cc1nn(C)c2sc(COc3ncc(F)c(N)n3)cc12` [Compound 132], the pest or weed control at 25 ppm reads like this: under setting [1], 76 to 100%; under setting [3], 76 to 100%. In addition, the pest or weed control at 100 ppm was 76 to 100% under setting [2] and 76 to 100% under setting [4].
Take `Nc1nc(OCc2cccc(CO)c2)ncc1F` [Compound 133]: the pest or weed control at 25 ppm is 51 to 75% under setting [1] and 51 to 75% under setting [3]. Also, the pest or weed control at 100 ppm under setting [2] lay within 76 to 100% and the pest or weed control at 100 ppm under setting [4] was 76 to 100%.
`CCOC(=O)COC(=O)Nc1nc(OCc2ccccc2)ncc1F` [Compound 134]: the pest or weed control at 25 ppm runs as follows: under setting [1], 0 to 25%; under setting [3], 51 to 75%. Moreover, the pest or weed control at 100 ppm is, setting by setting: under setting [2], 51 to 75%; under setting [4], 76 to 100%.
Turning to `Nc1nc(OCc2ccc(OC(F)F)cc2)ncc1F` [Compound 136], the pest or weed control at 25 ppm is, setting by setting: under setting [1], 76 to 100%; under setting [3], 76 to 100%. Also, the pest or weed control at 100 ppm lay within 76 to 100% under setting [2] and 76 to 100% under setting [4].
Consider `ONc1nc(OCc2ccc(F)cc2)ncc1F` [Compound 138], for which the pest or weed control at 25 ppm reads like this: under setting [1], 76 to 100%; under setting [3], 76 to 100%. For the same molecule, the pest or weed control at 100 ppm by setting is: under setting [2], 76 to 100%; under setting [4], 76 to 100%.
Turning to `Nc1nc(OCc2cc(C(F)(F)F)cc(C(F)(F)F)c2)ncc1F` [Compound 139], the pest or weed control at 25 ppm by setting is: under setting [1], 26 to 50%; under setting [3], 0 to 25%. Also, the pest or weed control at 100 ppm under setting [2] lay within 51 to 75% and the pest or weed control at 100 ppm under setting [4] fell in the range of 26 to 50%.
For the molecule `Cc1cccc(C)c1C(=O)Oc1ncc(F)c(/N=C/N(C)C)n1` [Compound 140], the pest or weed control at 25 ppm was in the range of 76 to 100% under setting [1] and 76 to 100% under setting [3]. The pest or weed control at 100 ppm under setting [2] lay in the range of 76 to 100% and the pest or weed control at 100 ppm under setting [4] lay within 76 to 100%.
With `N#Cc1cccc(COc2ncc(F)c(NC(=O)Nc3ccccc3F)n2)c1` [Compound 142], the pest or weed control at 25 ppm by setting is: under setting [1], 0 to 25%; under setting [3], 0 to 25%. Besides, the pest or weed control at 100 ppm lay in the range of 0 to 25% under setting [2] and 0 to 25% under setting [4].
As to `Nc1nc(OCc2cccc(C(F)(F)F)c2F)ncc1F` [Compound 144], the pest or weed control at 25 ppm reads like this: under setting [1], 76 to 100%; under setting [3], 76 to 100%. For the same molecule, the pest or weed control at 100 ppm reads like this: under setting [2], 76 to 100%; under setting [4], 76 to 100%.
With `Cc1ccc(C(C)Oc2ncc(F)c(N)n2)cc1C` (stereo not drawn) [Compound 145], the pest or weed control at 25 ppm was 76 to 100% under setting [1] and 76 to 100% under setting [3]. Besides, the pest or weed control at 100 ppm under setting [2] is 76 to 100% and the pest or weed control at 100 ppm under setting [4] was in the range of 76 to 100%.
With `CC(C)N(O)c1nc(OCc2ccc(F)cc2)ncc1F` [Compound 147], the pest or weed control at 25 ppm under setting [1] was in the range of 0 to 25% and the pest or weed control at 25 ppm under setting [3] was 26 to 50%. Besides, the pest or weed control at 100 ppm is, setting by setting: under setting [2], 51 to 75%; under setting [4], 26 to 50%.
As to `COc1cccc(COc2ncc(F)c(N/N=C\c3nc(C)cs3)n2)c1` [Compound 148], the pest or weed control at 25 ppm is 51 to 75% under setting [1] and 0 to 25% under setting [3]. Moreover, the pest or weed control at 100 ppm lay in the range of 51 to 75% under setting [2] and 0 to 25% under setting [4].
Consider `CC(Oc1ncc(F)c(NC(=O)c2ccccc2)n1)c1ccc(F)cc1` (stereo not drawn) [Compound 149], for which the pest or weed control at 25 ppm under setting [1] fell in the range of 26 to 50% and the pest or weed control at 25 ppm under setting [3] fell in the range of 0 to 25%. Besides, the pest or weed control at 100 ppm under setting [2] lay in the range of 76 to 100% and the pest or weed control at 100 ppm under setting [4] was in the range of 51 to 75%.
On to `CCOC(=O)Nc1nc(OCc2ccccc2OC)ncc1F` [Compound 150], for which the pest or weed control at 25 ppm is, setting by setting: under setting [1], 0 to 25%; under setting [3], 26 to 50%. In addition, the pest or weed control at 100 ppm runs as follows: under setting [2], 76 to 100%; under setting [4], 76 to 100%.
With `O=[N+]([O-])c1ccccc1SNc1nc(OCc2ccc3c(c2)OCO3)ncc1F` [Compound 151], the pest or weed control at 25 ppm under setting [1] is 0 to 25% and the pest or weed control at 25 ppm under setting [3] lay within 26 to 50%. Also, the pest or weed control at 100 ppm reads like this: under setting [2], 0 to 25%; under setting [4], 26 to 50%.
As for `Cc1cc(/C=N/Nc2nc(OCc3ccccc3)ncc2F)n(C)n1` [Compound 152], the pest or weed control at 25 ppm is 26 to 50% under setting [1] and 26 to 50% under setting [3]. For the same molecule, the pest or weed control at 100 ppm under setting [2] is 76 to 100% and the pest or weed control at 100 ppm under setting [4] is 76 to 100%.
Turning to `N#Cc1cccc(COc2ncc(F)c(NCO)n2)c1` [Compound 153], the pest or weed control at 25 ppm by setting is: under setting [1], 76 to 100%; under setting [3], 76 to 100%. In addition, the pest or weed control at 100 ppm under setting [2] fell in the range of 76 to 100% and the pest or weed control at 100 ppm under setting [4] lay within 76 to 100%.
`Nc1nc(OCc2c(F)cc(Br)cc2F)ncc1F` [Compound 154]: the pest or weed control at 25 ppm reads like this: under setting [1], 76 to 100%; under setting [3], 76 to 100%. For the same molecule, the pest or weed control at 100 ppm was in the range of 76 to 100% under setting [2] and 76 to 100% under setting [4].
Regarding `Nc1nc(OCc2ccc(F)c(Br)c2)ncc1F` [Compound 156], the pest or weed control at 25 ppm by setting is: under setting [1], 76 to 100%; under setting [3], 76 to 100%. In addition, the pest or weed control at 100 ppm is, setting by setting: under setting [2], 76 to 100%; under setting [4], 76 to 100%.
On to `O=[N+]([O-])c1ccccc1SNc1nc(OCc2ccsc2)ncc1F` [Compound 157], for which the pest or weed control at 25 ppm fell in the range of 26 to 50% under setting [1] and 26 to 50% under setting [3]. In addition, the pest or weed control at 100 ppm is, setting by setting: under setting [2], 76 to 100%; under setting [4], 26 to 50%.
Regarding `COCCCOc1ncc(F)c(NC(=O)Nc2ccsc2)n1` [Compound 159], the pest or weed control at 25 ppm is, setting by setting: under setting [1], 0 to 25%; under setting [3], 26 to 50%. Also, the pest or weed control at 100 ppm was 0 to 25% under setting [2] and 0 to 25% under setting [4].
For `CN1CCCC/C1=N\c1nc(OCc2ccc(F)cc2)ncc1F` [Compound 160], the pest or weed control at 25 ppm under setting [1] fell in the range of 76 to 100% and the pest or weed control at 25 ppm under setting [3] was 76 to 100%. In addition, the pest or weed control at 100 ppm is, setting by setting: under setting [2], 76 to 100%; under setting [4], 76 to 100%.
Take `COc1cccc(COc2ncc(F)c(NO)n2)c1` [Compound 161]: the pest or weed control at 25 ppm fell in the range of 76 to 100% under setting [1] and 26 to 50% under setting [3]. Further, the pest or weed control at 100 ppm is, setting by setting: under setting [2], 76 to 100%; under setting [4], 76 to 100%.
On to `Cc1ccc(COc2ncc(F)c(NCOCc3ccccc3)n2)cc1` [Compound 162], for which the pest or weed control at 25 ppm fell in the range of 26 to 50% under setting [1] and 0 to 25% under setting [3]. For the same molecule, the pest or weed control at 100 ppm is 76 to 100% under setting [2] and 0 to 25% under setting [4].
`N#Cc1cccc(COc2ncc(F)c(NCOCc3ccccc3)n2)c1` [Compound 167]: the pest or weed control at 25 ppm runs as follows: under setting [1], 0 to 25%; under setting [3], 0 to 25%. In addition, the pest or weed control at 100 ppm runs as follows: under setting [2], 26 to 50%; under setting [4], 0 to 25%.
Consider `Fc1ccccc1CNc1nc(OCc2cccs2)ncc1F` [Compound 168], for which the pest or weed control at 25 ppm was 0 to 25% under setting [1] and 0 to 25% under setting [3]. Moreover, the pest or weed control at 100 ppm by setting is: under setting [2], 26 to 50%; under setting [4], 26 to 50%.
In the case of `CCCNC(=O)Nc1nc(OCc2ccc(OC)c(F)c2)ncc1F` [Compound 170], the pest or weed control at 25 ppm runs as follows: under setting [1], 0 to 25%; under setting [3], 0 to 25%. Moreover, the pest or weed control at 100 ppm lay within 0 to 25% under setting [2] and 0 to 25% under setting [4].
Consider `CCc1ccc(COc2ncc(F)c(N)n2)cc1` [Compound 171], for which the pest or weed control at 25 ppm under setting [1] is 76 to 100% and the pest or weed control at 25 ppm under setting [3] was in the range of 76 to 100%. For the same molecule, the pest or weed control at 100 ppm was in the range of 76 to 100% under setting [2] and 76 to 100% under setting [4].
Consider `COCCOc1ncc(F)c(N)n1` [Compound 172], for which the pest or weed control at 25 ppm by setting is: under setting [1], 0 to 25%; under setting [3], 0 to 25%. Moreover, the pest or weed control at 100 ppm by setting is: under setting [2], 0 to 25%; under setting [4], 0 to 25%.
With `CC(Oc1ncc(F)c(N)n1)c1ccc(C(C)(C)C)cc1Cl` (stereo not drawn) [Compound 173], the pest or weed control at 25 ppm reads like this: under setting [1], 51 to 75%; under setting [3], 0 to 25%. For the same molecule, the pest or weed control at 100 ppm is 76 to 100% under setting [2] and 51 to 75% under setting [4].
As for `COCCOC(=O)Nc1nc(OCc2ccccc2)ncc1F` [Compound 174], the pest or weed control at 25 ppm runs as follows: under setting [1], 76 to 100%; under setting [3], 76 to 100%. Besides, the pest or weed control at 100 ppm under setting [2] was 76 to 100% and the pest or weed control at 100 ppm under setting [4] is 76 to 100%.
On to `CC(Oc1ncc(F)c(N)n1)c1ccc(-c2ccc(Br)cc2)cc1` (stereo not drawn) [Compound 175], for which the pest or weed control at 25 ppm under setting [1] lay in the range of 76 to 100% and the pest or weed control at 25 ppm under setting [3] is 0 to 25%. The pest or weed control at 100 ppm was in the range of 76 to 100% under setting [2] and 0 to 25% under setting [4].
